Converted amounts (≈) assume the structure as drawn.
Key:
[1] = tested on: Enterococcus faecalis; assay: Antibacterial activity against vancomycin-sensitive Enterococcus faecalis assessed as sub-MIC effect at 0.4 times MIC concentration incubated for 1 hr by viable plate count method; assay type: functional
[2] = tested on: Klebsiella pneumoniae; assay: Antibacterial activity against Klebsiella pneumoniae assessed as post-antibiotic sub-MIC effect at 0.4 times MIC concentration pretreated with 2 times MIC concentration for 1 hr followed by 1:1000 dilution by viable plate count method; assay type: functional
[3] = tested on: Streptococcus pneumoniae; assay: Antibacterial activity against penicillin-resistant Streptococcus pneumoniae assessed as post-antibiotic sub-MIC effect at 0.4 times MIC concentration pretreated with 10 times MIC concentration for 1 hr followed by 1:1000 dilution by viable plate count method; assay type: functional
[4] = tested on: Escherichia coli; assay: Antibacterial activity against Escherichia coli assessed as post antibiotic effect at 10 times MIC concentration incubated for 1 hr measured after 1:1000 dilution by viable plate count method; assay type: functional
[5] = tested on: Streptococcus pneumoniae; assay: Antibacterial activity against penicillin-intermediate Streptococcus pneumoniae assessed as post antibiotic effect at 10 times MIC concentration incubated for 1 hr measured after 1:1000 dilution by viable plate count method; assay type: functional
[6] = tested on: Haemophilus influenzae; assay: Antibacterial activity against amoxicillin, clavulanate-resistant Haemophilus influenzae expressing beta-lactamase assessed as post-antibiotic sub-MIC effect at 0.4 times MIC concentration pretreated with 6 times MIC concentration for 1 hr followed by 1:1000 dilution by viable plate count method; assay type: functional
[7] = tested on: Staphylococcus aureus; assay: Antibacterial activity against vancomycin-intermediate methicillin-resistant Staphylococcus aureus assessed as post-antibiotic sub-MIC effect at 0.4 times MIC concentration pretreated with 6 times MIC concentration for 1 hr followed by 1:1000 dilution by viable plate count method; assay type: functional
[8] = tested on: Acinetobacter baumannii; assay: Antibacterial activity against Acinetobacter baumannii assessed as sub-MIC effect at 0.3 times MIC concentration incubated for 1 hr by viable plate count method; assay type: functional
[9] = tested on: Haemophilus influenzae; assay: Antibacterial activity against beta-lactamase deficient and ampicillin-resistant Haemophilus influenzae assessed as sub-MIC effect at 0.3 times MIC concentration incubated for 1 hr by viable plate count method; assay type: functional
[10] = tested on: Staphylococcus aureus; assay: Antibacterial activity against vancomycin-intermediate methicillin-resistant Staphylococcus aureus by macrodilution method; assay type: functional
[11] = tested on: Haemophilus influenzae; assay: Antibacterial activity against beta-lactamase deficient ampicillin-resistant Haemophilus influenzae assessed as post-antibiotic sub-MIC effect at 0.3 times MIC concentration pretreated with 10 times MIC concentration for 1 hr followed by 1:1000 dilution by viable plate count method; assay type: functional
[12] = tested on: Enterobacter cloacae; assay: Antibacterial activity against Enterobacter cloacae assessed as sub-MIC effect at 0.2 times MIC concentration incubated for 1 hr by viable plate count method; assay type: functional
[13] = tested on: Enterococcus faecalis; assay: Antibacterial activity against vancomycin-resistant Enterococcus faecalis assessed as sub-MIC effect at 0.2 times MIC concentration incubated for 1 hr by viable plate count method; assay type: functional
[14] = tested on: Haemophilus influenzae; assay: Antibacterial activity against beta-lactamase deficient and ampicillin-resistant Haemophilus influenzae assessed as sub-MIC effect at 0.4 times MIC concentration incubated for 1 hr by viable plate count method; assay type: functional
[15] = tested on: Staphylococcus aureus; assay: Antibacterial activity against vancomycin-sensitive methicillin-resistant Staphylococcus aureus assessed as post-antibiotic sub-MIC effect at 0.4 times MIC concentration pretreated with 10 times MIC concentration for 1 hr followed by 1:1000 dilution by viable plate count method; assay type: functional
[16] = tested on: Staphylococcus aureus; assay: Antibacterial activity against vancomycin-sensitive methicillin-resistant Staphylococcus aureus assessed as post antibiotic effect at 6 times MIC concentration incubated for 1 hr measured after 1:1000 dilution by viable plate count method; assay type: functional
[17] = tested on: Escherichia coli; assay: Antibacterial activity against Escherichia coli assessed as post-antibiotic sub-MIC effect at 0.2 times MIC concentration pretreated with 6 times MIC concentration for 1 hr followed by 1:1000 dilution by viable plate count method; assay type: functional
[18] = tested on: Streptococcus pneumoniae; assay: Antibacterial activity against penicillin-intermediate Streptococcus pneumoniae assessed as sub-MIC effect at 0.3 times MIC concentration incubated for 1 hr by viable plate count method; assay type: functional
[19] = tested on: Escherichia coli; assay: Antibacterial activity against Escherichia coli infected in neutropenic mouse thighs assessed as post antibiotic effect; assay type: functional, Thigh muscle
[20] = tested on: Enterobacter cloacae; assay: Antibacterial activity against Enterobacter cloacae assessed as sub-MIC effect at 0.3 times MIC concentration incubated for 1 hr by viable plate count method; assay type: functional
[21] = tested on: Streptococcus pneumoniae; assay: Antibacterial activity against penicillin-susceptible Streptococcus pneumoniae by macrodilution method; assay type: functional
[22] = tested on: Streptococcus pneumoniae; assay: Antibacterial activity against penicillin-resistant Streptococcus pneumoniae assessed as sub-MIC effect at 0.3 times MIC concentration incubated for 1 hr by viable plate count method; assay type: functional
[23] = tested on: Enterococcus faecalis; assay: Antibacterial activity against vancomycin-sensitive Enterococcus faecalis by macrodilution method; assay type: functional
[24] = tested on: Klebsiella pneumoniae; assay: Antibacterial activity against Klebsiella pneumoniae assessed as post antibiotic effect at 10 times MIC concentration incubated for 1 hr measured after 1:1000 dilution by viable plate count method; assay type: functional
[25] = tested on: Enterobacter cloacae; assay: Antibacterial activity against Enterobacter cloacae assessed as post-antibiotic sub-MIC effect at 0.3 times MIC concentration pretreated with 10 times MIC concentration for 1 hr followed by 1:1000 dilution by viable plate count method; assay type: functional
[26] = tested on: Streptococcus pneumoniae; assay: Antibacterial activity against penicillin-resistant Streptococcus pneumoniae by macrodilution method; assay type: functional
[27] = tested on: Haemophilus influenzae; assay: Antibacterial activity against amoxicillin, clavulanate-resistant Haemophilus influenzae expressing beta-lactamase by macrodilution method; assay type: functional
[28] = tested on: Klebsiella pneumoniae; assay: Antibacterial activity against Klebsiella pneumoniae assessed as post-antibiotic sub-MIC effect at 0.2 times MIC concentration pretreated with 2 times MIC concentration for 1 hr followed by 1:1000 dilution by viable plate count method; assay type: functional
[29] = tested on: Klebsiella pneumoniae; assay: Antibacterial activity against Klebsiella pneumoniae assessed as post-antibiotic sub-MIC effect at 0.4 times MIC concentration pretreated with 10 times MIC concentration for 1 hr followed by 1:1000 dilution by viable plate count method; assay type: functional
[30] = tested on: Streptococcus pneumoniae; assay: Antibacterial activity against penicillin-intermediate Streptococcus pneumoniae assessed as post-antibiotic sub-MIC effect at 0.3 times MIC concentration pretreated with 10 times MIC concentration for 1 hr followed by 1:1000 dilution by viable plate count method; assay type: functional
[31] = tested on: Haemophilus influenzae; assay: Antibacterial activity against beta-lactamase deficient ampicillin-resistant Haemophilus influenzae assessed as post-antibiotic sub-MIC effect at 0.2 times MIC concentration pretreated with 10 times MIC concentration for 1 hr followed by 1:1000 dilution by viable plate count method; assay type: functional
[32] = tested on: Staphylococcus aureus; assay: Antibacterial activity against vancomycin-sensitive methicillin-resistant Staphylococcus aureus assessed as sub-MIC effect at 0.3 times MIC concentration incubated for 1 hr by viable plate count method; assay type: functional
[33] = tested on: Enterobacter cloacae; assay: Antibacterial activity against Enterobacter cloacae assessed as sub-MIC effect at 0.4 times MIC concentration incubated for 1 hr by viable plate count method; assay type: functional
[34] = tested on: Haemophilus influenzae; assay: Antibacterial activity against amoxicillin, clavulanate-resistant Haemophilus influenzae expressing beta-lactamase assessed as post-antibiotic sub-MIC effect at 0.3 times MIC concentration pretreated with 10 times MIC concentration for 1 hr followed by 1:1000 dilution by viable plate count method; assay type: functional
[35] = tested on: Acinetobacter baumannii; assay: Antibacterial activity against multidrug-resistant Acinetobacter baumannii producing OXA-24 and OXA-51 beta-lactamases assessed as sub-MIC effect at 0.3 times MIC concentration incubated for 1 hr by viable plate count method; assay type: functional
[36] = tested on: Acinetobacter baumannii; assay: Antibacterial activity against Acinetobacter baumannii assessed as sub-MIC effect at 0.4 times MIC concentration incubated for 1 hr by viable plate count method; assay type: functional

CN(C)c1cc(NC(=O)CNC(C)(C)C)c(O)c2c1C[C@H]1C[C@H]3[C@H](N(C)C)C(O)=C(C(N)=O)C(=O)[C@@]3(O)C(O)=C1C2=O [TIGECYCLINE]
PAE [1]: 1.8 h
PAE [2]: 2.6 h
PAE [3]: 10.2 h
PAE [4]: 2 h
PAE [5]: 1.9 h
PAE [6]: 7.7 h
PAE [7]: 10 h
PAE [8]: 1.5 h
PAE [9]: 0.8 h
MIC [10]: 0.12 µg/mL (≈ 0.205 µM)
PAE [11]: 2.8 h
PAE [12]: 0.2 h
PAE [13]: 0.4 h
PAE [14]: 0.8 h
PAE [15]: 6.7 h
PAE [16]: 2.9 h
PAE [17]: 1.9 h
PAE [18]: 5.7 h
PAE [19]: 4.9 h
PAE [20]: 0.4 h
MIC [21]: 0.03 µg/mL (≈ 0.0512 µM)
PAE [22]: 0.5 h
MIC [23]: 0.06 µg/mL (≈ 0.102 µM)
PAE [24]: 1.7 h
PAE [25]: 5 h
MIC [26]: 0.03 µg/mL (≈ 0.0512 µM)
MIC [27]: 0.12 µg/mL
PAE [28]: 1.8 h
PAE [29]: 2.3 h
PAE [30]: 8.8 h
PAE [31]: 2.8 h
PAE [32]: 0.2 h
PAE [33]: 2.7 h
PAE [34]: 5.4 h
PAE [35]: 0.7 h
PAE [36]: 11.2 h

— ChEMBL document CHEMBL1629634, “Postantibiotic effect of tigecycline against 14 gram-positive organisms” (Antimicrob Agents Chemother, 2009)
